Assay results: ChEMBL document CHEMBL1123241, “Alkyl-substituted thiolo-, thiono-, and dithio-gamma-butyrolactones: new classes of convulsant and anticonvulsant agents” (1986)

What was measured:
Assay type in all cases: functional
Mus musculus [1] = assay: Compound was evaluated for anticonvulsant activity against PTZ-induced tonic seizures at the 250 mg/kg dose; 4/4
Mus musculus [2] = assay: Compound was evaluated for anticonvulsant activity against PTZ-induced clonic seizures at 62.5 mg/kg dose; 4/4
Mus musculus [3] = assay: Compound was evaluated for anticonvulsant activity against PTZ-induced clonic seizures at the 250 mg/kg dose; 4/4
Mus musculus [4] = assay: Compound was evaluated for anticonvulsant activity against PTZ-induced tonic seizures at the 125 mg/kg dose; 4/4
Mus musculus [5] = assay: Compound was evaluated for anticonvulsant activity against PTZ-induced clonic seizures at the 125 mg/kg dose; 4/4
Mus musculus [6] = assay: Compound was evaluated for anticonvulsant activity against PTZ-induced tonic seizures at the 62.5 mg/kg dose; 4/4
Mus musculus [7] = assay: Compound was evaluated for anticonvulsant activity against PTZ-induced tonic seizures at the 500 mg/kg dose; 1/5
Mus musculus [8] = assay: Compound was evaluated for anticonvulsant activity against PTZ-induced tonic seizures at the 100 mg/kg dose; 5/5
Mus musculus [9] = assay: Compound was evaluated for anticonvulsant activity against PTZ-induced clonic seizures at the 100 mg/kg dose; 5/5
Mus musculus [10] = assay: Compound was evaluated for anticonvulsant activity against PTZ-induced clonic seizures at the 500 mg/kg dose; 3/5
Mus musculus [11] = assay: Compound was evaluated for anticonvulsant activity against PTZ-induced clonic seizures at the 250 mg/kg dose; 3/5
Mus musculus [12] = assay: Compound was evaluated for anticonvulsant activity against PTZ-induced tonic seizures at the 250 mg/kg dose; 3/5

Question: CCC1(C)CCOC1=O (configuration not stated) was tested. Which “Mean time to seizure” value (Mus musculus [1]) did it give?
Answer: 844 s

Question: And the “Mean time to seizure” value (Mus musculus [2])?
Answer: 150 s

Question: And the “Mean time to seizure” value (Mus musculus [3])?
Answer: 163 s

Question: What about the “Mean time to seizure” value (Mus musculus [4]) of the same molecule?
Answer: 1078 s

Question: And the “Mean time to seizure” value (Mus musculus [5])?
Answer: 365 s

Question: What about the “Mean time to seizure” value (Mus musculus [6]) of the same molecule?
Answer: 1015 s

Question: What does the source list for CCC1(C)CCSC1=S (configuration not stated)?
Answer: Mean time to seizure (Mus musculus [7]): 1200 s; Mean time to seizure (Mus musculus [8]): 728 s; Mean time to seizure (Mus musculus [9]): 87 s; Mean time to seizure (Mus musculus [10]): 218 s

Question: With CCC1(C)CCOC1=S (configuration not stated) as the molecule, how does the “Mean time to seizure” value (Mus musculus [11]) read?
Answer: 155 s

Question: What about the “Mean time to seizure” value (Mus musculus [12]) of the same molecule?
Answer: 341 s
